Reference: patent publication US5138069A (E. I. Du Pont de Nemours and Company, priority 1988, dated 1992)
Read-outs that look alike come from different tables or passages of the source.

What was measured:
Renal Hypertensive Rats = assay: Antihypertensive effects in renal hypertensive rats; format: in vivo; conditions: Rattus norvegicus; for minimal effective dose at 100 mg/kg / minimal effective dose at 10 mg/kg: Table 25; for minimal effective dose at 100 mg/kg: 100 mg/kg or less; for minimal effective dose at 10 mg/kg: 10 mg/kg or less
Protocol: This procedure increases blood pressure by increasing renin production with consequent elevation of AII levels. Compounds are administered orally at 100 mg/kg and/or intravenously via a cannula in the jugular vein at 10 mg/kg. Arterial blood pressure is continuously measured directly through a carotid artery cannula and recorded using a pressure transducer and a polygraph. Blood pressure levels after treatment are compared to pretreatment levels to determine the antihypertensive effects of the compounds (See Table 25).
(§1) Compounds listed in Table 26 were tested in the same manner as described for Table 25, except that in the test for antihypertensive effects in renal hypertensive rats, the compounds were administered orally at 30 mg/kg and intravenously at 3 mg/kg.

AII receptor = assay: Angiotensin II receptor binding (displacement of 3H-AII); conditions: read-out: Angiotensin II Receptor Binding IC50, rat adrenal cortical microsomes, 2 nM 3H-AII, 1 hour, room temperature
Protocol: The assay was carried out according to the method described by [Glossmann et al., J. Biol. Chem., 249, 825 (1974)], but with some modifications. The reaction mixture contained rat adrenal cortical microsomes (source of AII receptor) in Tris buffer and 2 nM of ^3 H-AII with or without potential AII antagonist. This mixture was incubated for 1 hour at room temperature and the reaction was subsequently terminated by rapid filtration and rinsing through glass micro-fibre filter. Receptor-bound ^3 H-AII trapped in filter was quantitated by scintillation counting.
as §1

[1] = Table 25, tested as sodium salt
[2] = tested as sodium salt, intravenous

SMILES	IC50 (AII receptor; [1]) [µM]	IC50 (AII receptor; Table 25) [µM]	minimal effective dose at 100 mg/kg (Renal Hypertensive Rats; tested as sodium salt, oral) [mg/kg]	minimal effective dose at 10 mg/kg (Renal Hypertensive Rats; [2]) [mg/kg]	minimal effective dose at 10 mg/kg (Renal Hypertensive Rats; intravenous) [mg/kg]	minimal effective dose at 100 mg/kg (Renal Hypertensive Rats; oral) [mg/kg]	other results
CCCCc1nc(Cl)c(Cc2nnn[nH]2)n1Cc1cccc(-c2nnn[nH]2)c1 [Example 26, 2-Butyl-4-chloro-5-[(1H-tetrazol-5-yl)methyl]-1-[3-(1H-tetrazol-5-yl)benzyl]imidazole]	3.8	–	> 100	–	–	–	–
CCCCc1nc(Cl)c(Cc2nnn[nH]2)n1Cc1ccc(-c2nnn[nH]2)cc1 [Example 27, 2-Butyl-4-chloro-5-[(1H-tetrazol-5-yl)methyl]-1-[4-(1H-tetrazol-5-yl)benzyl]imidazole]	1.2	–	< 100	< 10	–	–	–
CCCCc1nc(Cl)c(CC(=O)OC)n1Cc1ccc(N2C(=O)c3ccccc3C2=O)cc1 [Example 29, Methyl 2-butyl-4-chloro-1-(4-N-phthalimidobenzyl)imidazole-5-acetate]	–	3.1	–	–	< 10	> 100	–
CCCCc1nc(Cl)c(CC(=O)OC)n1Cc1ccc(NC(=O)c2ccccc2NS(=O)(=O)C(F)(F)F)cc1 [Example 30, Methyl 2-butyl-4-chloro-1-[4-((N-trifluoromethanesulfonyl)anthranilamido)benzyl]-imidazole-5-acetate]	0.39	–	< 100	< 10	–	–	–
CCCCc1nc(Cl)c(CC(=O)OC)n1Cc1ccc(NC(=O)c2cc(I)ccc2NS(=O)(=O)C(F)(F)F)cc1 [Example 35]	3.4	–	< 100	< 10	–	–	–
CCCCc1nc(Cl)c(CC(=O)OC)n1Cc1ccc(NC(=O)c2cccc(C)c2NS(=O)(=O)C(F)(F)F)cc1 [Example 36]	0.19	–	> 100	< 10	–	–	–
CCCCc1nc(Cl)c(CC(=O)OC)n1Cc1ccc(NC(=O)c2ccccc2NS(C)(=O)=O)cc1 [Example 51]	–	2.3	–	–	> 100	> 100	–
CCCCc1nc(Cl)c(CC(=O)OC)n1Cc1ccc(NC(=O)c2cc(C)ccc2NS(=O)(=O)C(F)(F)F)cc1 [Example 53A]	–	0.81	–	–	> 100	> 100	–
CCCCc1nc(Cl)c(CO)n1Cc1ccc(NC(=O)c2ccccc2NS(=O)(=O)C(F)(F)F)cc1 [Example 53B]	–	0.36	–	–	< 10	–	–
CCCCc1ncc(CO)n1Cc1ccc(NC(=O)c2ccccc2NS(=O)(=O)C(F)(F)F)cc1 [Example 53C]	–	0.21	–	–	< 10	–	–
CCCCCCCc1nc(Cl)c(CO)n1Cc1ccc(NC(=O)c2ccccc2NS(=O)(=O)C(F)(F)F)cc1 [Example 54, 4-Chloro-2-heptyl-5-hydroxymethyl-1-[4-((N-trifluoromethanesulfonyl)-anthranilamido)benzyl]imidazole]	–	7.2	–	–	< 10	–	–
COCCc1nc(Cl)c(CO)n1Cc1ccc(NC(=O)c2ccccc2C(=O)O)cc1 [Example 55, 1-[4-(2-Carboxybenzamido)-benzyl]-4-chloro-5-hydroxymethyl-2-(2-methoxyethyl)imidazole]	–	0.93	–	–	< 10	> 100	–
CCc1nccn1Cc1ccc(NC(=O)c2ccccc2NS(=O)(=O)C(F)(F)F)cc1 [Example 57]	–	4.9	–	–	< 10	> 100	–
CC(C)c1nccn1Cc1ccc(NC(=O)c2ccccc2NS(=O)(=O)C(F)(F)F)cc1 [Example 58]	–	8.3	–	–	< 10	> 100	–
CCCCc1nccn1Cc1ccc(NC(=O)c2ccccc2NS(=O)(=O)C(F)(F)F)cc1 [Example 59]	–	3	–	–	> 100	> 100	–
CCCc1nccn1Cc1ccc(NC(=O)c2ccccc2C(=O)O)cc1 [Example 63]	3.7	–	> 100	–	–	–	–
CCCCc1nccn1Cc1ccc(NC(=O)c2ccccc2C(=O)O)cc1 [Example 64]	–	0.62	–	–	< 10	> 100	–
CCCCCc1nccn1Cc1ccc(NC(=O)c2ccccc2C(=O)O)cc1 [Example 65]	–	0.24	–	–	< 10	> 100	–
CCCCc1nc(Cl)c(CO)n1Cc1ccc(-c2cccc(C(=O)OCOC(=O)C(C)(C)C)c2)cc1 [Example 88, 1-[(3'-Trimethylacetoxymethoxycarbonylbiphenyl-4-yl)methyl]-2-butyl-4-chloro-5-hydroxymethylimidazole]	–	1.3	–	–	–	< 100	–
CCCCc1nc(C(F)(F)C(F)(F)F)c(CO)n1Cc1ccc(-c2ccccc2C(=O)O)cc1 [Example 92A, 1-[(2'-carboxybiphenyl-4-yl)methyl]-2-butyl-5-hydroxymethyl-4-pentafluoroethylimidazole]	–	–	–	–	–	–	minimal effective dose at 3 mg/kg (Renal Hypertensive Rats; Table 26, intravenous, 3 mg/kg): < 3 mg/kg; minimal effective dose at 30 mg/kg (Renal Hypertensive Rats; Table 26, oral, 30 mg/kg): < 30 mg/kg; IC50 (AII receptor; Table 26): 0.04 µM

Now from value to compound, other results behind:

IC50 (AII receptor; [1]) [µM]	IC50 (AII receptor; Table 25) [µM]	SMILES	minimal effective dose at 100 mg/kg (Renal Hypertensive Rats; tested as sodium salt, oral) [mg/kg]	minimal effective dose at 10 mg/kg (Renal Hypertensive Rats; [2]) [mg/kg]	minimal effective dose at 10 mg/kg (Renal Hypertensive Rats; intravenous) [mg/kg]	minimal effective dose at 100 mg/kg (Renal Hypertensive Rats; oral) [mg/kg]	other results
–	0.35	CCCCCCc1nccn1Cc1ccc(NC(=O)c2ccccc2C(=O)O)cc1 [Example 66]	–	–	< 10	> 100	–
–	1.1	CCCCCCCc1nccn1Cc1ccc(NC(=O)c2ccccc2C(=O)O)cc1 [Example 67]	–	–	< 10	> 100	–
–	2.5	COc1ccc(Cc2nccn2Cc2ccc(NC(=O)c3ccccc3C(=O)O)cc2)cc1 [Example 70]	–	–	< 10	> 100	–
–	6.5	CSc1ncc(CO)n1Cc1ccc(NC(=O)c2ccccc2C(=O)O)cc1 [Example 72, 1-[4-(2-Carboxybenzamido)-benzyl]-5-hydroxymethyl-2-(methylthio)-imidazole]	–	–	< 10	> 100	–
7.6	–	CCCCc1nc(C#N)c(C#N)n1Cc1ccc(NC(=O)c2ccccc2NS(=O)(=O)C(F)(F)F)cc1 [Example 75, 2-Butyl-4,5-dicyano-1-[4-((N-trifluoromethanesulfonyl)anthranilamido)-benzyl]imidazole]	< 100	< 10	–	–	–
2.7	–	CCCCc1nc(Cl)c(CC(=O)OC)n1Cc1ccc(N(Cc2ccccc2)C(=O)c2ccccc2NS(=O)(=O)C(F)(F)F)cc1 [Example 76, Methyl 2-butyl-1-[4-(N-benzyl-N-(2-(trifluoromethanesulfonamido)benzoyl)-amino)benzyl]-4-chloroimidazole-5-acetate]	> 100	< 10	–	–	–
5.7	–	CCCCc1nc(Cl)c(COC)n1Cc1ccc(N(C)C(=O)c2c(Cl)ccc(Cl)c2C(=O)O)cc1 [Example 77, 2-n-Butyl-4-chloro-5-methoxymethyl-1-[4-(N-methyl-2-carboxy-3,6-dichlorobenzamid)benzyl]imidazole]	> 100	> 100	–	–	–
8	–	CCCCc1nc(Cl)c(COC)n1Cc1ccc(C(=O)Nc2ccccc2C(=O)O)cc1 [Example 78]	< 100	< 10	–	–	–
0.5	–	CCCCc1nc(Cl)c(COC)n1Cc1ccc(C(=O)Nc2nnn[nH]2)cc1 [Example 79]	> 100	< 10	–	–	–
0.5	–	CCCCc1nc(Cl)c(COC)n1Cc1ccc(C(=O)Nc2cccc(C)c2C(=O)O)cc1 [Example 80]	< 100	< 10	–	–	–
0.57	–	CCCCc1nc(Cl)c(COC)n1Cc1ccc(C(=O)Nc2ccccc2-c2nnn[nH]2)cc1 [Example 81]	> 100	> 100	–	–	–
0.02	–	CCCCc1nc(Cl)c(COC)n1Cc1ccc(-c2ccccc2-c2nnn[nH]2)cc1 [Example 90]	< 100	< 10	–	–	–
–	0.26	CCCCc1nc([N+](=O)[O-])c(CO)n1Cc1ccc(-c2ccccc2C(=O)O)cc1 [Example 91, 1-[(2'-carboxybiphenyl-4-yl)-methyl]-2-butyl-5-hydroxymethyl-4-nitroimidazole]	–	–	< 10	> 100	–
–	0.062	CCCCc1nc(C(F)(F)F)c(CO)n1Cc1ccc(-c2ccccc2C(=O)O)cc1 [Example 92, 1-[(2'-carboxybiphenyl-4-yl)-methyl]-2-butyl-5-hydroxymethyl-4-trifluoromethylimidazole]	–	–	< 10	–	–
–	0.28	CCCCc1nc(Cl)c(CO)n1Cc1ccc(-c2ccccc2C(=O)O)cc1 [Example 94, 2-butyl-1-[(2'-carboxybiphenyl-4-yl)methyl]-4-chloro-5-hydroxymethylimidazole]	–	–	< 10	< 100	–
